Experimental data from patent US8946158B2, “Treatments of gastrointestinal disorders” (Ironwood Pharmaceuticals, Inc., priority 2009, dated 2015).
Positions of bridges follow the written chain, without caps; N, C: chain ends. Non-standard residues stand in square brackets, D forms with d. Residues, ends and D or L forms follow the SMILES beside them. pS = N[C@@H](COP(=O)(O)O)C(=O)O

Assays:
[1] = In vitro metabolism in mouse jejunum loop fluid; assay type: in vitro ADME; conditions: for Rate of degradation relative to peptide 2: mouse intestinal fluid
Description: The purpose of this study was to determine the stability of phosphorylated peptides in mouse jejunal loop fluid. […] The isotopically labeled peptide 2 was synthesized with ^13C, ^15N-labeled alanine and leucine (i.e., with a sequence CCpS[^13C6,^15N]LCCNP[^13C6,^15N]ACTGC (SEQ ID NO:16)).
Each peptide was synthesized by American Peptide Company, Inc., and was stored desiccated at −20° C. A 1 mg/mL solution for each of the non-labeled peptides was prepared in 1 M tris(hydroxymethyl)aminomethane hydrochloride (Tris-HCl), pH 8 just prior to conducting the mouse intestinal loop fluid assay. A 500 ng/mL solution of ^13C, ^15N-labeled peptide 2 was prepared in 0.1% formic acid in water and was utilized to dilute the jejunum samples for post-assay LC-MS/MS analysis.
To collect the fluid, mice were fasted overnight with full access to water. They were then anesthetized with isofluorane for surgery and subjected to laparotomy in which the small intestine was exteriorized. Jejunum loops of 3 to 4 cm in length were made with sutures starting at 7 cm from the pyloric sphincter of the stomach. Once the loops were formed, they were injected with 200 μL of phosphate buffered saline (PBS) buffer (10 mM, pH 7.4). The abdominal wall and skin of the animals were then sutured, and the animals were allowed to recover for 30 minutes. Following recovery, the animals were sacrificed, the loops were then excised and the fluid inside was recovered and stored at −80° C. until use.
For each peptide, 25 μL of the 1 mg/mL peptide stock solution was added to 25 μL of 1 M Tris-HCl and 25 μL of 10× calf intestinal phosphatase (CIP) buffer containing 500 mM Tris-HCl, 1 M sodium chloride (NaCl), 0.1 mM magnesium chloride (MgCl2), pH 8. The reactions were initiated by adding 175 μL of the mouse jejunum loop fluid or 175 μL of the 1 M Tris-HCl pH8 buffer for the control reactions. The final concentration of each peptide was 100 μg/mL. The reactions were continuously mixed and maintained at 37° C. on a plate shaker. At 0, 2, 5, 10, 20, 30, 60, 90 and 120 minutes after adding the mouse intestinal loop fluid, a 25 μL aliquot was taken and added to 25 μL of 4° C. 12% trichloroacetic acid to stop the reaction. An additional 200 μL of 0.1% formic acid in water was added to these reactions for dilution purposes. These samples were then further diluted by taking 20 μL of each sample and adding it to 480 μL of 0.1% formic acid in water containing 500 ng/mL of the internal standard 13C, 15N-labeled peptide 2.
All samples were analyzed using an Applied Biosystems/MDS SCIEX API 4000 triple quadrupole mass spectrometer equipped with a high-performance liquid chromatography (HPLC) system. The mass spectrometer was operated in multiple reaction monitoring (MRM) mode, with resolution set to 1.2 Da. […]

[2] = target: T1, Calf intestinal alkaline phosphatase (CIP) (Bos taurus, UniProt P19111); experiment: Alkaline phosphatase reaction (dephosphorylation of peptide substrates, LC-MS); assay type: in vitro ADME; conditions: with and without calf intestinal alkaline phosphatase; data not shown
T1 construct: purchased New England BioLabs M0290S
Description: For the alkaline phosphatase reactions, peptide stocks were prepared at 1 mg/mL in 0.1 M Tris-HCl pH 8, which were stored at −20° C. until assays were conducted. For the acid phosphatase reactions, peptide stocks were prepared at 1 mg/mL in 50 mM sodium phosphate pH 6, which was stored at −20° C. until assays were conducted.
Calf intestinal alkaline phosphatase (CIP) was obtained from New England BioLabs, Ipswich, Mass. Cat #M0290S. The CIP reaction solution was prepared by dilution with buffer (50 mM KCl, 10 mM Tris-HCl pH 8, 1 mM MgCl2, 50% glycerol) to 0.5 units/μL. The alkaline phosphatase reaction solutions were assembled in 20 μL quantities containing: • 2 μL 10× CIP buffer (1M NaCl, 500 mM Tris-HCl pH 8, 100 mM MgCl2) • 2 μL peptide stock (1 mg/mL) • 12 μL H2O • 4 μL alkaline phosphatase (0, 0.5 or 2 units)
The reaction solutions were mixed gently and incubated for 90 minutes at 37° C. These reaction solutions were stored at −20° C. until analysis. For analysis, the reaction solutions were diluted from […] of CIP treated peptide to 50 μL with 0.1% formic acid in water to a final concentration of 10 μM.
Control reactions were assembled for enzyme activity containing 10 mM p-nitrophenylphosphate in place of peptide. After incubation, the reactions were diluted with 0.1 mL of 100 mM borate buffer pH 9 and read at the absorbance of 405 nm to monitor p-nitrophenol appearance.

[3] = tested on: ligated rat duodenal loops; experiment: Fluid secretion in rat intestinal loops; assay type: in vivo; conditions: 2.5 μg of peptide per loop
Description: The effect of GC-C agonist peptides on secretion were studied by injecting GC-C agonist peptides described herein directly into an isolated loop in wild-type rats.
Loops were isolated by surgically ligating three loops in the small intestine of the rat. The methodology for ligated loop formation was similar to that described in (London et al., 1997, Am J Physiol, p. G93-105). The loops were roughly centered and at lengths of 1-3 cm. The loops were injected with 200 μl of either peptide/GC-C agonist (0.1-5 μg) or vehicle (20 mM Tris, pH 7.5 or Krebs Ringer, 10 mM Glucose, HEPES buffer (KRGH)). Following a recovery time of up to 90 minutes the loops were excised. Weights were recorded for each loop before and after removal of the fluid contained therein. The length of each loop was also recorded. A weight to length ratio (W/L) for each loop was calculated to determine the effects of the GC-C agonist peptide described herein on secretion. Loop fluid volume was also determined.
Data showing increases in fluid secretion, pH increase and bicarbonate secretion in ligated duodenal loops in rats are shown in FIG. 2 and Table 8. […] Table 8 provides the results in ligated rat duodenal loops using 2.5 μg of peptide per loop.

upper GI transit in mice = experiment: Gastrointestinal transit in mice (charcoal meal); assay type: in vivo; conditions: female CD-1 mice; oral gavage; distance travelled by charcoal front, % of small intestine
Description: The purpose of the assay was to test the effect of the guanylate cyclase C agonist peptides on in vivo gastrointestinal transit in mice.
For the assay, female CD-1 mice (n=10 per group) weighing 25-30 g were fasted overnight and given access to water ad libitum. Activated charcoal (20 g; 100 mesh; Sigma cat #242276) was suspended in 200 mL gum arabic (100 mg/mL), and stirred for at least one hour. Test peptides were prepared in a 20 mM Tris pH 6.9 vehicle.
Test peptide and vehicle were administered in 200 μL doses by oral gavage. Seven minutes after dosing the test peptides, 200 μL of the charcoal/gum arabic suspension was dosed by oral gavage. […] The total length of the small intestine was measured from the pyloric junction to the ileocaecal junction. The distance travelled by the charcoal was measured from the pyloric junction to the charcoal front. The Distance Travelled (%) was determined as (distance travelled by charcoal/total length of the small intestine)×100. Data were entered into the GraphPad Prism software program and analyzed by ANOVA using a Bonferroni multiple comparison test post-hoc. Plots of data and ED50 were also determined using the GraphPad Prism software package.
The dose-dependent effects of acute doses of Peptide 4, Peptide 1, Peptide 2, the dephosphorylated form of Peptide 1 and the dephosphorylated form of Peptide 2 on GI transit were determined in female CD mice. […]

T1 sequence (P19111 20-506): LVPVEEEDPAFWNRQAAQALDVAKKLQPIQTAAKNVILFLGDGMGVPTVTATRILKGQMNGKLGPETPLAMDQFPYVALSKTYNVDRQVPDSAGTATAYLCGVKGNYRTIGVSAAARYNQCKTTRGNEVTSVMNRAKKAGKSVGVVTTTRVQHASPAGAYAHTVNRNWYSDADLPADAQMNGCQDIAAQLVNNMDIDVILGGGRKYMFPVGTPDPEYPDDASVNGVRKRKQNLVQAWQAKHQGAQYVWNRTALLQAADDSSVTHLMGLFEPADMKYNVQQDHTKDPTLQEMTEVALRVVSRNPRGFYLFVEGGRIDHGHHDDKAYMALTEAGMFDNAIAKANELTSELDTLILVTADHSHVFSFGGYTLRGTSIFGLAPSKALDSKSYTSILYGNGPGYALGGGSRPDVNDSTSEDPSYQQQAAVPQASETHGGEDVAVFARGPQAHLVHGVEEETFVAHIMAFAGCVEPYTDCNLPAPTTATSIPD

Molecule: CC(C)C[C@@H]1NC(=O)[C@H](COP(=O)(O)O)NC(=O)[C@@H]2CSSC[C@@H]3NC(=O)[C@H](C)NC(=O)[C@@H]4CCCN4C(=O)[C@H](CC(N)=O)NC(=O)[C@H](CSSC[C@H](N)C(=O)N2)NC(=O)[C@H](CSSC[C@@H](C(=O)O)NC(=O)CNC(=O)[C@H]([C@@H](C)O)NC3=O)NC1=O [Peptide 2, CCpSLCCNPACTGC] (H-CC[pS]LCCNPACTGC-OH; disulfide 1-6, 2-10, 5-13 (inferred); N-terminus and C-terminus assumed)
- Metabolite formation ([1]; mouse jejunum loop fluid at 37° C.): Formation of dephospho-peptide 2 was observed

Molecule: CC(C)C[C@@H]1NC(=O)[C@H](CCC(=O)O)NC(=O)[C@@H]2CSSC[C@@H]3NC(=O)[C@H](C)NC(=O)[C@@H]4CCCN4C(=O)[C@H](CC(N)=O)NC(=O)[C@H](CSSC[C@H](N)C(=O)N2)NC(=O)[C@H](CSSC[C@@H](C(=O)N[C@@H](Cc2ccc(O)cc2)C(=O)O)NC(=O)CNC(=O)[C@H]([C@@H](C)O)NC3=O)NC1=O [Peptide 3, CCELCCNPACTGCY] (H-CCELCCNPACTGCY-OH; disulfide 1-6, 2-10, 5-13 (inferred); N-terminus and C-terminus assumed)
- Rate of degradation relative to peptide 2 [1]: degraded faster in mouse intestinal fluid than peptide 2
- Peptide remaining (detection) ([1]; mouse jejunum fluid, after 90 minutes, 37° C.): not detected
- Effect of CIP treatment on peptide (LC-MS) [2]: not affected

Molecule: CCEFCCNPACTGCY (Synthetically generated peptide (Peptide 4))
- Rate of HCO3− accumulation [3]: 0.00008 Meq/min/cm
- Rate of fluid accumulation [3]: 2.0 µL/min/cm
- pH [3]: 8.2
- ED50, acceleration of upper GI transit in mice (upper GI transit in mice): 2.06 µg/kg

Molecule: CC(C)C[C@@H]1NC(=O)[C@H](CO)NC(=O)[C@@H]2CSSC[C@@H]3NC(=O)[C@H](C)NC(=O)[C@@H]4CCCN4C(=O)[C@H](CC(N)=O)NC(=O)[C@H](CSSC[C@H](N)C(=O)N2)NC(=O)[C@H](CSSC[C@@H](C(=O)O)NC(=O)CNC(=O)[C@H]([C@@H](C)O)NC3=O)NC1=O [Dephospho-Peptide 2, CCSLCCNPACTGC] (H-CCSLCCNPACTGC-OH; disulfide 1-6, 2-10, 5-13 (inferred); N-terminus and C-terminus assumed)
- Rate of degradation relative to peptide 2 [1]: degraded faster in mouse intestinal fluid than peptide 2
